“And” between values parts separate entries of the source, which are not always exact repeats. Equal values may be shown once.
Experiments:
[1] = tested on: Escherichia coli (ATCC28922); assay: Microdilution MIC assay (CLSI-based), E. coli; format: cell-based; details: Escherichia coli, ATCC28922, 20 h, 20 hours incubation at 35-37° C., MHB; read-out: Minimum inhibitory concentration E. coli ATCC28922
Summary of the method: (§1)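 Broth microdilution per modified CLSI guidelines in Mueller Hinton broth, 200 μL, inoculum ca. 5×10^5 CFU/mL; compounds tested as salts, twofold dilutions from 0.2 mg/mL, in triplicate. MIC determined from OD at 620 nm after incubation.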

CHO-K1 cells = assay: WST1 cytotoxicity test; format: cell-based, Chinese hamster; details: Cricetulus griseus, CHO-K1, 24 h, WST1, 24 hours at 37° C.; read-out: IC50 CHO
Summary of the method: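 CHO-K1 cells pre-cultured 24 h, then exposed 24 h at 37 °C to increasing compound concentrations. Viability read as WST-1 formazan absorbance at 450 nm after 20 min; dose-response fitted by nonlinear regression.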

[2] = tested on: Pseudomonas aeruginosa (ATCC27853); assay: Microdilution MIC assay (CLSI-based), P. aeruginosa; format: cell-based; details: Pseudomonas aeruginosa, ATCC27853, 20 h, 20 hours incubation at 35-37° C., MHB; read-out: Minimum inhibitory concentration P. aeruginosa ATCC27853
Summary of the method: as §1

[3] = tested on: Enterococcus faecalis (ATCC29212); assay: Microdilution MIC assay (CLSI-based), E. faecalis; format: cell-based; details: Enterococcus faecalis, ATCC29212, 20 h, 20 hours incubation at 35-37° C., MHB; read-out: Minimum inhibitory concentration E. faecalis ATCC29212
Summary of the method: as §1

[4] = tested on: Staphylococcus aureus (ATCC25923); assay: Microdilution MIC assay (CLSI-based), S. aureus; format: cell-based; details: Staphylococcus aureus, ATCC25923, 20 h, 20 hours incubation at 35-37° C., MHB; read-out: Minimum inhibitory concentration S. aureus ATCC25923
Summary of the method: as §1

Structure (SMILES) | MIC [1] | IC50 (CHO-K1 cells) | MIC [2] | MIC [3] | MIC [4]
COC(=O)[C@H](C)NC(=O)CC[C@@H](C)[C@H]1CCC2C3C(CC[C@@]21C)[C@@]1(C)CC[C@H](NCCCNCCNCCCN)C[C@H]1C[C@H]3O (stereo partly drawn) [Compound S034, methyl ((4R)-4-((3S,5S,7R,10S,13R,17R)-3-((3-((2-((3-aminopropyl)amino)ethyl)amino)propyl)amino)-7-hydroxy-10,13-dimethylhexadecahydro-1H-cyclopenta[a]phenanthren-17-yl)pentanoyl)-L-alaninate] | 50 µM and 32 µg/mL | 266 µM and 168 µg/mL | 100 µM and 64 µg/mL | 6.25 µM and 4 µg/mL | 50 µM and 32 µg/mL
COC(=O)[C@H](Cc1ccccc1)NC(=O)CC[C@@H](C)[C@H]1CCC2C3C(CC[C@@]21C)[C@@]1(C)CC[C@H](NCCCN2CCN(CCCN)CC2)C[C@H]1C[C@H]3O (stereo partly drawn) [Compound S025, methyl ((4R)-4-((3S,5S,7R,10S,13R,17R)-3-((3-(4-(3-aminopropyl)piperazin-1-yl)propyl)amino)-7-hydroxy-10,13-dimethylhexadecahydro-1H-cyclopenta[a]phenanthren-17-yl)pentanoyl)-L-phenylalaninate] | 25 µM and 16 µg/mL | 3.7 µM and 2.72 µg/mL | 100 µM and 64 µg/mL | 25 µM and 16 µg/mL | 25 µM and 16 µg/mL
COC(=O)[C@H](NC(=O)CC[C@@H](C)[C@H]1CCC2C3C(CC[C@@]21C)[C@@]1(C)CC[C@H](NCCNCCNCCN)C[C@H]1C[C@H]3O)C(C)C (stereo partly drawn) [Compound S012, methyl ((4R)-4-((3S,5S,7R,10S,13R,17R)-3-((2-((2-((2-aminoethyl)amino)ethyl)amino)ethyl)amino)-7-hydroxy-10,13-dimethylhexadecahydro-1H-cyclopenta[a]phenanthren-17-yl)pentanoyl)-D-valinate] | 100 µM and 64 µg/mL | 101 µM and 64.2 µg/mL | 100 µM and 64 µg/mL | 25 µM and 16 µg/mL | 50 µM and 32 µg/mL
COC(=O)[C@H](Cc1ccccc1)NC(=O)CC[C@@H](C)[C@H]1CCC2C3C(CC[C@@]21C)[C@@]1(C)CC[C@H](NCCNCCN)C[C@H]1C[C@H]3O (stereo partly drawn) [Compound S024, methyl ((4R)-4-((3S,5S,7R,10S,13R,17R)-3-((2-((2-aminoethyl)amino)ethyl)amino)-7-hydroxy-10,13-dimethylhexadecahydro-1H-cyclopenta[a]phenanthren-17-yl)pentanoyl)-L-phenylalaninate] | 25 µM and 16 µg/mL | 83.7 µM and 53.5 µg/mL | 100 µM and 64 µg/mL | 25 µM and 16 µg/mL | 25 µM and 16 µg/mL
COC(=O)[C@@H](NC(=O)CC[C@@H](C)[C@H]1CCC2C3CC[C@@H]4C[C@@H](NCCCNCCCCNCCCN)CC[C@]4(C)C3CC[C@@]21C)C(C)C (stereo partly drawn) [Compound S057, methyl ((4R)-4-((3S,5R,10S,13R,17R)-3-((3-((4-((3-aminopropyl)amino)butyl)amino)propyl)amino)-10,13-dimethylhexadecahydro-1H-cyclopenta[a]phenanthren-17-yl)pentanoyl)-L-valinate] | 3.12 µM and 2 µg/mL | 30.2 µM and 20.4 µg/mL | 6.25 µM and 4 µg/mL | 3.12 µM and 2 µg/mL | 3.12 µM and 2 µg/mL
COC(=O)[C@@H](Cc1ccccc1)NC(=O)CC[C@@H](C)[C@H]1CCC2C3C(CC[C@@]21C)[C@@]1(C)CC[C@H](NCCCNCCCNCCCN)C[C@H]1C[C@H]3O (stereo partly drawn) [Compound S022, methyl ((4R)-4-((3S,5S,7R,10S,13R,17R)-3-((3-((3-((3-aminopropyl)amino)propyl)amino)propyl)amino)-7-hydroxy-10,13-dimethylhexadecahydro-1H-cyclopenta[a]phenanthren-17-yl)pentanoyl)-D-phenylalaninate] | 12.5 µM and 8 µg/mL | 17.1 µM and 12.4 µg/mL | 12.5 µM and 8 µg/mL | 25 µM and 16 µg/mL | 12.5 µM and 8 µg/mL

Reference: patent US20260250312A1, “ANTIBACTERIAL COMPOUNDS ELIMINATING DORMANT BACTERIAL CELLS” (UNIVERSITÉ D'AIX-MARSEILLE, priority 2022, published 2026)
